Experimental data: ChEMBL document CHEMBL5528063, “Antitrypanosomal Chloronitrobenzamides” (J Med Chem, 2024)
Active and inactive are the calls of the source. The calls are words filed in the database; no cut-off is given here.

Assays:
[1] = test system: Trypanosoma brucei brucei; test: Antitrypanosomal activity against Trypanosoma brucei brucei 427 assessed as inhibition of parasite proliferation incubated for 48 hrs by CellTiter-Glo luminescent assay; assay type: functional, organism-based; details: Trypanosoma brucei, 427, 48 h
[2] = Cytotoxicity against human BJ cells assessed as inhibition of cell growth incubated for 72 hrs by CellTiter-Glo luminescence assay; assay type: toxicity, cell-based
[3] = Metabolic stability in […] mouse liver microsomes assessed as half-life at 20 uM measured after 2 hrs by UPLC-MS analysis; assay type: ADME, Microsome
[4] = Aqueous solubility of compound in 1-propanol at pH 7.4 incubated for 18 hrs by UV spectrum analysis; assay type: physicochemical; details: 1-propanol (aqueous, pH 7.4), pH 7.4
[5] = Metabolic stability in […] mouse liver microsomes assessed as intrinsic clearance at 20 uM measured after 2 hrs by UPLC-MS analysis; assay type: ADME, Microsome; details: read-out: CLH
[6] = Metabolic stability in rat liver microsomes assessed as half-life at 20 uM; assay type: ADME, Microsome
[7] = Metabolic stability in rat liver microsomes assessed as intrinsic clearance at 20 uM; assay type: ADME, Microsome; details: read-out: CLH
[8] = Metabolic stability in human liver microsomes assessed as half-life at 20 uM incubated for 2 hrs by UPLC-MS analysis; assay type: ADME, Microsome
[9] = Metabolic stability in human liver microsomes assessed as intrinsic clearance at 20 uM incubated for 2 hrs by UPLC-MS analysis; assay type: ADME, Microsome; details: read-out: CLH
Trypanosoma congolense [10] = test: Antitrypanosomal activity against Trypanosoma congolense IL3000 assessed as inhibition of parasite proliferation incubated for 69 hrs by resazurin dye based microplate fluorometric analysis; assay type: functional, organism-based; details: IL3000, 69 h
Trypanosoma vivax = test: Antitrypanosomal activity against Trypanosoma vivax STIB 719/ ILRAD 560 assessed as inhibition of parasite proliferation incubated for 45 hrs by resazurin dye based microplate fluorometric analysis; assay type: functional, organism-based; details: STIB 719/ ILRAD 560, 45 h
Raji = test: Cytotoxicity against human Raji cells assessed as inhibition of cell growth incubated for 72 hrs by CellTiter-Glo luminescence assay; assay type: functional, cell-based
HepG2 = test: Cytotoxicity against human HepG2 cells assessed as inhibition of cell growth incubated for 72 hrs by CellTiter-Glo luminescence assay; assay type: functional, cell-based; details: HepG2, 72 h
[11] = Cytotoxicity against HEK293 cells assessed as inhibition of cell growth incubated for 72 hrs by CellTiter-Glo luminescence assay; assay type: toxicity, cell-based; details: human
[12] = Stability in mouse plasma assessed as half-life measured after 24 hrs by UPLC-MS analysis; assay type: ADME, cell-free
[13] = Stability in rat plasma assessed as half-life measured after 24 hrs by UPLC-MS analysis; assay type: ADME, cell-free
[14] = Stability in human plasma assessed as half-life measured after 24 hrs by UPLC-MS analysis; assay type: ADME, cell-free
[15] = Protein binding in mouse plasma at 20 uM incubated for 18 hrs by UPLC-MS analysis; assay type: ADME, cell-free; details: read-out: PPB (converted)
[16] = Protein binding in rat plasma at 20 uM incubated for 18 hrs by UPLC-MS analysis; assay type: ADME, cell-free; details: read-out: PPB (converted)
[17] = Protein binding in human plasma at 20 uM incubated for 18 hrs by UPLC-MS analysis; assay type: ADME, cell-free; details: read-out: PPB (converted)
[18] = Permeability of compound at pH 7.4 incubated for 30 mins by PAMPA-GIT assay; assay type: ADME; details: read-out: permeability
[19] = Efflux ratio of apparent permeability from basolateral to apical side over apical to basolateral side in human Caco-2 cells incubated for 2 hrs by UPLC/MS analysis; assay type: ADME, cell-based
[20] = Stability of compound in PBS at pH 7.4 assessed as half-life measured after 48 hrs by UPLC-MS analysis; assay type: physicochemical
[21] = Stability of compound in PBS at pH 5 assessed as half-life measured after 48 hrs by UPLC-MS analysis; assay type: physicochemical
[22] = Stability of compound in PBS at pH 3 assessed as half-life measured after 48 hrs by UPLC-MS analysis; assay type: physicochemical
[23] = Stability of compound in SGF assessed as half-life measured after 24 hrs by UPLC-MS analysis; assay type: ADME
[24] = Cmax in C57BL/6 mouse at 50 mg/kg, po measured after 144 hrs by LC-MS/MS analysis; assay type: ADME, organism-based; details: in vivo
[25] = Tmax in C57BL/6 mouse at 50 mg/kg, po measured after 144 hrs by LC-MS/MS analysis; assay type: ADME, organism-based; details: in vivo
[26] = AUC in C57BL/6 mouse at 50 mg/kg, po measured after 144 hrs by LC-MS/MS analysis; assay type: ADME, organism-based; details: in vivo
[27] = Elimination half-life in C57BL/6 mouse at 50 mg/kg, po measured after 144 hrs by LC-MS/MS analysis; assay type: ADME, organism-based; details: in vivo, read-out: beta t1/2 (converted)
[28] = Drug concentration in C57BL/6 mouse brain at 50 mg/kg, po measured after 144 hrs by LC-MS/MS analysis; assay type: ADME, organism-based; details: read-out: Ct
[29] = Clearance in C57BL/6 mouse at 50 mg/kg, po measured after 144 hrs by LC-MS/MS analysis; assay type: ADME, organism-based; details: in vivo
[30] = Cmax in Sprague-Dawley rat at 6 mg/kg, iv measured after 45.3 hrs by LC/MS analysis; assay type: ADME, organism-based; details: in vivo
[31] = Oral bioavailability in Sprague-Dawley rat at 50 mg/kg measured after 45.3 hrs by LC/MS analysis; assay type: ADME, organism-based; details: in vivo
[32] = Toxicity in Sprague-Dawley rat at 50 mg/kg, po measured after 45.3 hrs; assay type: organism-based; details: in vivo
[33] = test system: Trypanosoma brucei rhodesiense; test: Antitrypanosomal activity against Trypanosoma brucei rhodesiense STIB900 infected in NMRI mouse model assessed as survival at 50 mg/kg, po pre-infected for 3 days followed by compound administration for 4 days and measured 60 days post infection (reference value: 7 day); assay type: functional; details: time 57 day
Trypanosoma congolense [34] = test: Antitrypanosomal activity against Trypanosoma congolense STIB 736/IL-1180 infected in NMRI mouse model assessed as survival at 50 mg/kg, ip administrated […] starting from day 7 to day 10 post infection (reference value: 11 day); assay type: functional
[35] = test system: Trypanosoma brucei brucei; test: Antitrypanosomal activity against Trypanosoma brucei brucei 427 assessed as reduction in parasitemia in presence of fetal bovine serum; assay type: functional, organism-based
[36] = test system: Trypanosoma brucei brucei; test: Trypanocidal activity against Trypanosoma brucei brucei 427 assessed as reduction in parasitemia at 8 uM incubated for 4 days by clonal dilution based CellTiter-Glo assay; assay type: functional, organism-based; details: time 4.0 day
[37] = test system: Trypanosoma brucei brucei; test: Trypanocidal activity against Trypanosoma brucei brucei 427 assessed as reduction in parasitemia at 0.1 to 1.5 uM incubated for 4 days in presence of nifurtimox by CellTiter-Glo assay; assay type: functional, organism-based; details: dose 0.1-1.5 µM, time 4.0 day

Cc1ccc(-c2nc3ccccc3s2)cc1NC(=O)c1cc([N+](=O)[O-])c(N2CCN(C)CC2)cc1Cl
EC50 [1]: 1 nM
EC50 at 72 h [2]: > 25000 nM
half-life at 20 µM [3]: > 4 h
solubility at 18 h [4]: ≤ 0.3 µM
CLint scaled at 20 µM [5]: < 14 mL/min/kg
half-life at 20 µM [6]: > 4 h
CLint scaled at 20 µM [7]: < 12 mL/min/kg
half-life at 20 µM [8]: > 4 h
CLint scaled at 20 µM [9]: < 6 mL/min/kg
EC50 (Trypanosoma congolense [10]): 3 nM
EC50 (Trypanosoma vivax): 6 nM
EC50 (Raji): > 25000 nM
EC50 (HepG2): > 25000 nM
EC50 at 72 h [11]: > 25000 nM
half-life [12]: > 24 h
half-life [13]: > 24 h
half-life [14]: > 24 h
fraction unbound at 18 h, 20 µM [15]: 0.009
fraction unbound at 18 h, 20 µM [16]: 0.007
fraction unbound at 18 h, 20 µM [17]: 0.002
Papp at 0.5 h [18]: 237 ×10⁻⁶ cm/s
efflux ratio at 2 h [19]: 1.92
half-life [20]: 5.7 h
half-life [21]: > 24 h
half-life [22]: > 24 h
half-life [23]: > 24 h
Cmax [24]: 6.5 µM
Tmax [25]: 4 h
AUC at 144 h [26]: 83 µM·h
half-life [27]: 7 h
concentration at 144 h [28]: 8 µM
CL/F [29]: 0.357 mL/min
Cmax [30]: > 10 µM
bioavailability [31]: 14%
Activity [32]: Non-Toxic
Survival [33]: 14 days
Survival (Trypanosoma congolense [34]): 21 days
Activity [35]: Active
Activity [36]: inactive
Activity [37]: Active
